Among the data in patent publication US20150166523A1, “BRANCHED CHAIN ALKYL HETEROAROMATIC RING DERIVATIVE” (TAISHO PHARMACEUTICAL CO., LTD., priority 2012, published 2015) are IC50 values, retold here.

Test [1] has as its target T1, human orexin-1 receptor (hOX1R) (Homo sapiens, UniProt O43613).
T1 construct: expressed in transfected cells; host or cells: Chinese hamster ovary (CHO) cells
T1 sequence (O43613 1-425): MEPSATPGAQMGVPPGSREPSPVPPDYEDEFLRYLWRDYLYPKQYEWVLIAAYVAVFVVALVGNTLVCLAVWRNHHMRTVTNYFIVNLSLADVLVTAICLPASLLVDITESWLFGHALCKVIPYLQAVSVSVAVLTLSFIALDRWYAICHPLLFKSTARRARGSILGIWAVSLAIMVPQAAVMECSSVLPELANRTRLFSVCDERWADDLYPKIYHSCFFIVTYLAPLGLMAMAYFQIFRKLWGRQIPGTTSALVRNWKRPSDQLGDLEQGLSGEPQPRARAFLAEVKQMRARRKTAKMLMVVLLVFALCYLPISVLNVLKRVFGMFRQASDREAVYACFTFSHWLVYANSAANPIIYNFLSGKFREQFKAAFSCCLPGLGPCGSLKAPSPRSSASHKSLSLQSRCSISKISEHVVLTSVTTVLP
Kind of test: Measurement of orexin antagonistic activity (intracellular Ca2+ fluorescence, FDSS) on hOX1R. Type of test: cell-based. Conditions: CHO cells forcibly expressing hOX1R; Fluo-4AM; ligand peptide (substituted human orexin-A) 300 pM; compound preincubated 30 minutes; read-out: IC50 Value OX1. Put shortly: (§1)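 CHO cells stably expressing hOX1R or hOX2R, loaded with 0.5 μM Fluo-4AM in HEPES/HBSS buffer with 0.1% BSA and 2.5 mM probenecid, pH 7.4, then preincubated 30 min with compound. Fluorescence recorded each second for 3 min by FDSS; maximum intensity taken as intracellular Ca2+ indicator of antagonism.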

For test [2], the target named is T2, orexin-2 receptor (hOX2R) (Homo sapiens, UniProt O43614).
T2 construct: expressed in transfected cells; host or cells: Chinese hamster ovary (CHO) cells
T2 sequence (O43614 1-444): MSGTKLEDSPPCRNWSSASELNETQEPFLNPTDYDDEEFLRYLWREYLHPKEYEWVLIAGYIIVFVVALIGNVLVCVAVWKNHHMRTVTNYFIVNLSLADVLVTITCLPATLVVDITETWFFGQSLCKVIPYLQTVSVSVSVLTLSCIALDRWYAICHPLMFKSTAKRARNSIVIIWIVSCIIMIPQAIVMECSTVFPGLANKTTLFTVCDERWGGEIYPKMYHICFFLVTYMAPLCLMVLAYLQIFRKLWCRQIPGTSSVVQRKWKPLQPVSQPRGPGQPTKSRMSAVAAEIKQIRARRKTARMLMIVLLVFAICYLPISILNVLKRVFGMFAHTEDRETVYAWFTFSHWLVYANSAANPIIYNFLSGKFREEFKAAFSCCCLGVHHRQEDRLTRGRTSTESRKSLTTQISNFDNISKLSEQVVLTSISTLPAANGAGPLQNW
Briefly: Measurement of orexin antagonistic activity (intracellular Ca2+ fluorescence, FDSS) on hOX2R. The class given is cell-based. Conditions: CHO cells forcibly expressing hOX2R; Fluo-4AM; ligand peptide (substituted human orexin-A) 3 nM; compound preincubated 30 minutes; read-out: IC50 Value OX2. Summed up:
as §1

With `CCN(C(=O)c1cc(C)ccc1-n1nccn1)[C@H](C)Cn1ccc(-c2ccc(F)cn2)n1` [Example 2, N-Ethyl-N-{(2R)-1-[3-(5-fluoropyridin-2-yl)-1H-pyrazol-1-yl]propan-2-yl]-5-methyl-2-(2H-1,2,3-triazol-2-yl) benzamide], the IC50 (as a rule, the concentration that gives 50% inhibition) in test [1] came out at 17.4 nM; in test [2], 186 nM.
With `Cc1ccc(-n2nccn2)c(C(=O)N(CCC#N)[C@@H](C)Cn2cc(-c3ccc(F)cc3)nn2)c1` [Example 91, N-(2-Cyanoethyl)-N-{(2S)-1-[4-(4-fluorophenyl)-1H-1,2,3-triazol-1-yl]propan-2-yl}-5-methyl-2-(2H-1,2,3-triazol-2-yl) benzamide], the results for the IC50 in test [1] and in test [2] were 203 nM and 279 nM, respectively.
As for `CCN(C(=O)c1cc(C)ccc1-n1nccn1)[C@@H](C)Cn1cc(-c2ccc(Cl)cc2)nn1` [Example 92, N-{(2S)-1-[4-(4-Chlorophenyl)-1H-1,2,3-triazol-1-yl]propan-2-yl}-N-ethyl-5-methyl-2-(2H-1,2,3-triazol-2-yl)benzamide], the IC50 in test [1] came to 2.5 nM; in test [2], 64.6 nM.
Regarding `COCCN(C(=O)c1cc(C)ccc1-n1nccn1)[C@@H](C)Cn1ccc(-c2ccc(F)cn2)n1` [Example 40, N-{(2S)-1-[3-(5-Fluoropyridin-2-yl)-1H-pyrazol-1-yl]propan-2-yl]}-N-(2-methoxyethyl-5-methyl-2-(2H-1,2,3-triazol-2-yl)benzamide], the values for the IC50 in test [1] and in test [2] were 1.4 nM and 12.4 nM, respectively.
For the compound `CCN(C(=O)c1cc(C)ccc1-n1nccn1)C(C)Cc1ccn(-c2ccc(F)cn2)n1` (stereo not shown) [Example 75, N-Ethyl-N-{1-[1-(5-fluoropyridin-2-yl)-1H-pyrazol-3-yl]propan-2-yl}-5-methyl-2-(2H-1,2,3-triazol-2-yl) benzamide], the values for the IC50 in test [1] and in test [2] were 1.4 nM and 1.7 nM, respectively.
As to `CCN(C(=O)c1cc(C)ccc1-n1nccn1)[C@@H](C)Cn1cc(-c2ccc(F)cc2)nn1` [Example 71, N-Ethyl-N-{(2S)-1-[4-(4-fluorophenyl)-1H-1,2,3-triazol-1-yl]propan-2-yl}-5-methyl-2-(2H-1,2,3-triazol-2-yl)benzamide], the concentration for half-maximal inhibition (IC50) stood at 1.3 nM in test [1] and 21.8 nM in test [2].
`CCN(C(=O)c1cc(F)ccc1-c1ncccn1)[C@@H](C)Cc1noc(-c2ccc(F)cc2)n1` [Example 53, N-Ethyl-5-fluoro-N-{(2S)-1-[5-(4-fluorophenyl)-1,2,4-oxadiazol-3-yl]propan-2-yl}-2-(pyrimidin-2-yl) benzamide]: the values for the IC50 in test [1] and in test [2] were 6.6 nM and 75.6 nM, respectively.
As for `C[C@@H](Cn1ccc(-c2ccc(F)cn2)n1)N(C)C(=O)c1ccccc1-n1nccn1` [Example 20, N-{(2S)-1-[3-(5-Fluoropyridin-2-yl)-1H-pyrazol-1-yl]propan-2-yl}-N-methyl-2-(2H-1,2,3-triazol-2-yl)benzamide], the half-maximal inhibitory concentration (IC50) in test [1] is 3.4 nM; in test [2] it was 55.9 nM.
Turning to `Cc1ccc(-n2nccn2)c(C(=O)N(C)[C@@H](C)Cc2noc(-c3ccc(F)cc3)n2)c1` [Example 59, N-{(2S)-1-[5-(4-Fluorophenyl)-1,2,4-oxadiazol-3-yl]propan-2-yl}-N,5-dimethyl-2-(2H-1,2,3-triazol-2-yl) benzamide], the values for the IC50 in test [1] and in test [2] were 0.5 nM and 10.1 nM, respectively.
Turning to `Cc1ccc(-n2nccn2)c(C(=O)N(CCO)[C@@H](C)Cn2cc(-c3ccc(F)cc3)cn2)c1` [Example 43, N-{(2S)-1-[4-(4-Fluorophenyl)-1H-pyrazol-1-yl]propan-2-yl}-N-(2-hydroxyethyl)-5-methyl-2-(2H-1,2,3-triazol-2-yl)benzamide], the half-maximal inhibitory concentration (IC50) in test [1] amounted to 3.5 nM; in test [2], 13.6 nM.
Taken in the same sequence, the figures for `CCN(C(=O)c1nc(C)ccc1-c1ncccn1)[C@@H](C)Cn1cc(-c2ccc(F)cn2)nn1` [Example 80, N-Ethyl-N-{(2S)-1-[4-(5-fluoropyridin-2-yl)-1H-1,2,3-triazol-1-yl]propan-2-yl}-6-methyl-3-(pyrimidin-2-yl)pyridine-2-carboxamide] were 687 nM and 7810 nM.
`CCN(C(=O)c1cc(C)ccc1-n1nccn1)[C@@H](C)Cn1cc(-c2ccc(OC)cc2)nn1` [Example 96, N-Ethyl-N-{(2S)-1-[4-(4-methoxyphenyl)-1H-1,2,3-triazol-1-yl]propan-2-yl}-5-methyl-2-(2H-1,2,3-triazol-2-yl)benzamide]: the IC50 in test [1] was 160 nM; in test [2] it was 8370 nM.
As to `CCN(C(=O)c1cc(F)ccc1-c1ncccn1)[C@@H](C)Cn1cc(-c2ccc(F)cn2)cn1` [Example 34, N-Ethyl-5-fluoro-N-{(2S)-1-[4-(5-fluoropyridin-2-yl)-1H-pyrazol-1-yl]propan-2-yl}-2-(pyrimidin-2-yl)benzamide], the half-maximal inhibitory concentration (IC50) in test [1] amounted to 9.8 nM; in test [2] it was 334 nM.
In the case of `CCN(C(=O)c1cc(C)ccc1-n1nccn1)[C@@H](C)Cc1noc(-c2ccc(F)cc2)n1` [Example 61], the IC50 in test [1] was determined as 0.7 nM; in test [2] it was 3.3 nM.
In the case of `C[C@@H](Cn1ccc(-c2ccc(F)cn2)n1)N(C)C(=O)c1ccccc1-c1ncccn1` [Example 4, N-[(2S)-1-[3-(5-Fluoropyridin-2-yl)-1H-pyrazol-1-yl]propan-2-yl]-N-methyl-2-(pyrimidin-2-yl)benzamide], the IC50 turned out to be 1.7 nM in test [1] and 67 nM in test [2].
As to `CCN(C(=O)c1nc(C)ccc1-n1nccn1)[C@@H](C)Cn1cc(-c2ccc(F)cn2)nn1` [Example 77, N-Ethyl-N-{(2S)-1-[4-(5-fluoropyridin-2-yl)-1H-1,2,3-triazol-1-yl]propan-2-yl}-6-methyl-3-(2H-1,2,3-triazol-2-yl)pyridine-2-carboxamide], the IC50 was found to be 48.8 nM in test [1] and 1450 nM in test [2].
For `Cc1ccc(-n2nccn2)c(C(=O)N(C)[C@@H](C)Cc2noc(-c3ccc(F)cn3)n2)c1` [Example 45, N-{(2S)-1-[5-(5-Fluoropyridin-2-yl)-1,2,4-oxadiazol-3-yl]propan-2-yl}-N,5-dimethyl-2-(2H-1,2,3-triazol-2-yl)benzamide], the IC50 in test [1] turned out to be 3.3 nM; in test [2], 75.5 nM.
Turning to `CCN(C(=O)c1cc(C)ccc1-n1nccn1)[C@@H](C)Cn1cc(-c2cccc(O)c2)nn1` [Example 93, N-Ethyl-N-{(2S)-1-[4-(3-hydroxyphenyl)-1H-1,2,3-triazol-1-yl]propan-2-yl}-5-methyl-2-(2H-1,2,3-triazol-2-yl)benzamide], the IC50 turned out to be 1.4 nM in test [1] and 7.4 nM in test [2].
Taken in the same sequence, the figures for `Cc1ccc(-n2nccn2)c(C(=O)N(CCO)[C@@H](C)Cn2ccc(-c3ccc(F)cn3)n2)c1` [Example 44, N-{(2S)-1-[3-(5-Fluoropyridin-2-yl)-1H-pyrazol-1-yl]propan-2-yl}-N-(2-hydroxyethyl)-5-methyl-2-(2H-1,2,3-triazol-2-yl)benzamide] were 1.3 nM and 25.9 nM.
In the case of `CCN(C(=O)c1nc(C)ccc1-c1ncccn1)[C@@H](C)Cc1noc(-c2ccc(F)cc2)n1` [Example 52, N-Ethyl-N-{(2S)-1-[5-(4-fluorophenyl)-1,2,4-oxadiazol-3-yl]propan-2-yl}-6-methyl-3-(pyrimidin-2-yl)pyridine-2-carboxamide], the half-maximal inhibitory concentration (IC50) in test [1] is 9.2 nM; in test [2] it was 376 nM.
